The results in this text go back to patent US20020119898A1, “Fabric cleaning system” (Unilever Home & Personal Care USA, Division of Conopco, Inc., priority 2000, published 2002).

The data set can be described thus: pKa of Brönsted acidic or basic functional groups of the fluorescer. The following applies: functional groups comprised in the fluorescer. In kind it is physicochemical. The source says:
In addition, a preferred group of […] can be described by the presence and pKa of certain functional groups in the fluorescer. Therefore, a preferred group of hydrophilic fluorescers comprises fluorescers having at least one or more Brönsted acidic, basic functional groups or mixtures thereof with a pKa of 7 or less. A Brönsted acidic functional group is generally defined as a —AH group having a pKa of 7 or less for the equilibrium dissociation constant Ka=[—A][H′]/[—AH]. Likewise a Brönsted basic functional group is generally defined as a —B group, the conjugate acid of it (i.e. BH^+) having a pKa of 7 or less for the equilibrium dissociation constant Ka=[—B][H^+]/[—BH^+]. Examples of acidic functional groups include sulphonate, carboxylate, sulphate, phosphate, phosphonate and phosphinate. Examples of basic functional groups include amino groups, primary, secondary and tertiary amine groups.

For the compound `O=S(=O)([O-])c1ccccc1C=Cc1ccc(-c2ccc(C=Cc3ccccc3S(=O)(=O)[O-])cc2)cc1.[Na+].[Na+]` [TINOPAL™ CBS-X], the “pKa of functional groups” value was under 7.
